Experimental data published in PubChem BioAssay AID2060492 (Molecular Pharmacology Branch, DTP, NCI, 2025).

Tested on: 695427-040-R-J1-PDC complex spheroids, viability percent T/C
Assay: Anticancer human tumor 695427-040-R-J1-PDC patient-derived colon adenocarcinoma cell line growth inhibition [GQUAD]
Conditions: for IC50: curve of first compound; for viability, T/C: stronger effect = lower value
Excerpt: DNA G-quadruplex Stabilizer Agents in Combinations in Complex Spheroids
A high-throughput screen of multi-cell type tumor spheroids was designed to identify active combinations of DNA G-quadruplex stabilizer agents and targeted small molecules. Complex spheroids include a stromal component modeled by human endothelial cells (HUVEC) and fibroblasts modeled by human mesenchymal stem cells (MSCs). The concentration ranges selected for each drug and investigational agent were based upon clinically achievable concentrations if the clinical Cmax of the agent was known.
Compounds. The drugs and investigational agents: pidnarulex (CX-5461; NSC782164), APTO-253 (NSC789042), BRACO-19 (NSC847499), peposertib (NSC802822), ceralasertib (NSC780249), elimusertib (NSC800525), camonsertib (NSC841442), AZD-1390 (NSC803789), olaparib (NSC753686), talazoparib (NSC767125), ART-558 (NSC835418), sotorasib (NSC818433), MRTX-1133 (NSC836407), SN-38 (NSC673596), topotecan (NSC609699), etoposide (NSC141540), doxorubicin (NSC123127), gemcitabine (NSC613327), 5-fluorouracil (NSC19893), paclitaxel (NSC125973), vemurafenib (NSC761431), panobinostat (NSC761190), R-306465 (JNJ-16241199; NSC773264), adavosertib (NSC754352), TP-3654 (NSC805149), carboplatin (NSC241240), KSQ-4279 (NSC840948), and staurosporine (NSC755774) were obtained from the National Cancer Institute (NCI) Developmental Therapeutics Program Chemical Repository (34). The FDA-approved anticancer drug set is available from the NCI Developmental Therapeutics Program. […] The stock solutions were prepared in dimethyl sulfoxide (DMSO, Sigma-Aldrich, St. Louis, MO, cat. D2650) at 800-fold the tested concentration and stored at -70 degrees C prior to their use. All drugs and investigational agents were tested over a range starting from a high concentration at or near the clinical Cmax and decreasing in half-log increments. If the clinical Cmax for an agent had not been determined, the highest concentration tested was 10 microM.
2.3 Cell Culture. All cells were maintained in an incubator at 37 degrees C and 5% CO2 with 95% humidity. The PDC lines were cultured according to standard operating procedures established by the NCI PDMR. All PDCs were thawed and cultured in Matrigel-coated flasks prepared with a working solution of 1X Ham's F-12 nutrient mix, without supplementation (Invitrogen, cat. 11765054), 100 U/mL penicillin-streptomycin (Invitrogen, cat. 15140122), and 2.5% Matrigel (Corning Inc., cat. 354248) for the first three passages. The 857933-349-R-J2-PDC line was cultured in 6C/Colon 1B media, which includes advanced DMEM/F-12 (Thermo Fisher Scientific, cat. 12634028), 10 mM HEPES (Thermo Fisher Scientific, cat. 15630080), 1X GlutaMAX supplement (Thermo Fisher Scientific, cat. 35050061), 0.1 mg/mL primocin (InvivoGen, cat. ant-pm-2), 10% defined fetal bovine serum, heat inactivated (HyClone Laboratories Inc., cat. SH30070.03HI), 50% L-WRN conditioned media (ATCC, cat. CRL-3276), 1.25 mM N-Acetyl-L-cysteine (Sigma-Aldrich, cat. A9165), 10 mM nicotinamide (Sigma-Aldrich, cat. N0636), 1X B-27 supplement (Thermo Fisher Scientific, cat. 17504044), 1X N-2 supplement (Thermo Fisher Scientific, cat. 17502048), 10 microM Y-27632 dihydrochloride (Tocris Bioscience, cat. 1254), and 50 ng/mL human EGF recombinant protein (Thermo Fisher Scientific, cat. PHG0311). The 485176-168-R4-J1-PDC line was cultured in Panc media, which includes all 6C/Colon 1B media components plus 100 ng/mL human FGF-10 (Thermo Fisher Scientific, cat. 100-26), 500 nM SB-431542 (Selleckchem, cat. S1067), and gastrin (Tocris, cat. 3006).
[…]

[1] = second compound 0.0316 µM, first compound 0.0316 µM
[2] = second compound 0.0316 µM, first compound 0.1 µM
[3] = second compound 0.0316 µM, first compound 0.316 µM
[4] = second compound 0.0316 µM, first compound 1 µM
[5] = second compound 0.0316 µM, first compound 3.16 µM
[6] = second compound 0.0316 µM, first compound 10 µM
[7] = second compound 0.1 µM, first compound 0.0316 µM
[8] = second compound 0.1 µM, first compound 0.1 µM
[9] = second compound 0.1 µM, first compound 0.316 µM
[10] = second compound 0.1 µM, first compound 1 µM
[11] = second compound 0.1 µM, first compound 3.16 µM
[12] = second compound 0.1 µM, first compound 10 µM
[13] = second compound 0.316 µM, first compound 0.0316 µM
[14] = second compound 0.316 µM, first compound 0.1 µM
[15] = second compound 0.316 µM, first compound 0.316 µM
[16] = second compound 0.316 µM, first compound 1 µM
[17] = second compound 0.316 µM, first compound 3.16 µM
[18] = second compound 0.316 µM, first compound 10 µM
[19] = second compound 1 µM, first compound 0.0316 µM
[20] = second compound 1 µM, first compound 0.1 µM
[21] = second compound 1 µM, first compound 0.316 µM
[22] = second compound 1 µM, first compound 1 µM
[23] = second compound 1 µM, first compound 3.16 µM
[24] = second compound 1 µM, first compound 10 µM
[25] = second compound 3.16 µM, first compound 0.0316 µM
[26] = second compound 3.16 µM, first compound 0.1 µM
[27] = second compound 3.16 µM, first compound 0.316 µM
[28] = second compound 3.16 µM, first compound 1 µM
[29] = second compound 3.16 µM, first compound 3.16 µM
[30] = second compound 3.16 µM, first compound 10 µM
[31] = second compound 10 µM, first compound 0.0316 µM
[32] = second compound 10 µM, first compound 0.1 µM
[33] = second compound 10 µM, first compound 0.316 µM
[34] = second compound 10 µM, first compound 1 µM
[35] = second compound 10 µM, first compound 3.16 µM
[36] = second compound 10 µM, first compound 10 µM
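Also: spheroids exposed to compounds for seven days before readout.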

CC1COCCN1c1cc(C2(O)CC3CCC(C2)O3)c2cnn(-c3ccn[nH]3)c2n1 (stereo unspecified) + CN(C)c1ccc(Nc2c3ccc(NC(=O)CCN4CCCC4)cc3nc3cc(NC(=O)CCN4CCCC4)ccc23)cc1
IC50 (second compound 0.0316 µM): 2.3 µM
IC50 (second compound 0.1 µM): 2.04 µM
IC50 (second compound 0.316 µM): 2.01 µM
IC50 (second compound 1 µM): 2.27 µM
IC50 (second compound 3.16 µM): 1.54 µM
IC50 (second compound 10 µM): 0.873 µM
viability, T/C [1]: 105%
viability, T/C [2]: 79.7%
viability, T/C [3]: 73.6%
viability, T/C [4]: 55.5%
viability, T/C [5]: 48%
viability, T/C [6]: 39.6%
viability, T/C [7]: 100%
viability, T/C [8]: 81.9%
viability, T/C [9]: 69.4%
viability, T/C [10]: 57.2%
viability, T/C [11]: 45.4%
viability, T/C [12]: 38.1%
viability, T/C [13]: 89.3%
viability, T/C [14]: 87.1%
viability, T/C [15]: 70.3%
viability, T/C [16]: 57.4%
viability, T/C [17]: 46.4%
viability, T/C [18]: 39%
viability, T/C [19]: 91.3%
viability, T/C [20]: 80.7%
viability, T/C [21]: 67.1%
viability, T/C [22]: 53.9%
viability, T/C [23]: 50.9%
viability, T/C [24]: 38.6%
viability, T/C [25]: 81.9%
viability, T/C [26]: 78.1%
viability, T/C [27]: 69.9%
viability, T/C [28]: 51.8%
viability, T/C [29]: 46.1%
viability, T/C [30]: 37.5%
viability, T/C [31]: 83.9%
viability, T/C [32]: 78.2%
viability, T/C [33]: 66.9%
viability, T/C [34]: 46.4%
viability, T/C [35]: 41.2%
viability, T/C [36]: 35.5%

CC1COCCN1c1cc(C2(S(C)(=N)=O)CC2)nc(-c2ccnc3[nH]ccc23)n1 (stereo unspecified) + CN(C)c1ccc(Nc2c3ccc(NC(=O)CCN4CCCC4)cc3nc3cc(NC(=O)CCN4CCCC4)ccc23)cc1
IC50 (second compound 0.0316 µM): > 10 µM
IC50 (second compound 0.1 µM): > 10 µM
IC50 (second compound 0.316 µM): > 10 µM
IC50 (second compound 1 µM): > 10 µM
IC50 (second compound 3.16 µM): > 10 µM
IC50 (second compound 10 µM): > 10 µM
viability, T/C [1]: 104%
viability, T/C [2]: 96.5%
viability, T/C [3]: 106%
viability, T/C [4]: 97%
viability, T/C [5]: 95.5%
viability, T/C [6]: 69.4%
viability, T/C [7]: 109%
viability, T/C [8]: 93.8%
viability, T/C [9]: 110%
viability, T/C [10]: 86.1%
viability, T/C [11]: 87%
viability, T/C [12]: 74%
viability, T/C [13]: 103%
viability, T/C [14]: 91.4%
viability, T/C [15]: 94.3%
viability, T/C [16]: 83.7%
viability, T/C [17]: 87.5%
viability, T/C [18]: 69.9%
viability, T/C [19]: 93.3%
viability, T/C [20]: 96.4%
viability, T/C [21]: 100%
viability, T/C [22]: 93.1%
viability, T/C [23]: 91.5%
viability, T/C [24]: 68.5%
viability, T/C [25]: 95.8%
viability, T/C [26]: 101%
viability, T/C [27]: 103%
viability, T/C [28]: 90.8%
viability, T/C [29]: 93.4%
viability, T/C [30]: 69.6%
viability, T/C [31]: 86.7%
viability, T/C [32]: 91.8%
viability, T/C [33]: 91.9%
viability, T/C [34]: 88.1%
viability, T/C [35]: 86%
viability, T/C [36]: 69.8%

COc1ccc([C@@H](O)c2cc(-c3ncnc4cc(N5CCOCC5)ccc34)c(F)cc2Cl)nn1 + CN(C)c1ccc(Nc2c3ccc(NC(=O)CCN4CCCC4)cc3nc3cc(NC(=O)CCN4CCCC4)ccc23)cc1
IC50 (second compound 0.0316 µM): 8.39 µM
IC50 (second compound 0.1 µM): > 10 µM
IC50 (second compound 0.316 µM): 9.75 µM
IC50 (second compound 1 µM): 8.02 µM
IC50 (second compound 3.16 µM): 8.26 µM
IC50 (second compound 10 µM): 6.96 µM
viability, T/C [1]: 97.4%
viability, T/C [2]: 98.5%
viability, T/C [3]: 94.6%
viability, T/C [4]: 87.2%
viability, T/C [5]: 67.2%
viability, T/C [6]: 46.9%
viability, T/C [7]: 99.3%
viability, T/C [8]: 101%
viability, T/C [9]: 89.4%
viability, T/C [10]: 81.2%
viability, T/C [11]: 72.9%
viability, T/C [12]: 50%
viability, T/C [13]: 97.2%
viability, T/C [14]: 96.7%
viability, T/C [15]: 89.3%
viability, T/C [16]: 82.3%
viability, T/C [17]: 68.5%
viability, T/C [18]: 49.3%
viability, T/C [19]: 93.6%
viability, T/C [20]: 103%
viability, T/C [21]: 100%
viability, T/C [22]: 79%
viability, T/C [23]: 74.3%
viability, T/C [24]: 44.4%
viability, T/C [25]: 102%
viability, T/C [26]: 96.4%
viability, T/C [27]: 98.7%
viability, T/C [28]: 83.3%
viability, T/C [29]: 68.4%
viability, T/C [30]: 46.3%
viability, T/C [31]: 88.8%
viability, T/C [32]: 77.3%
viability, T/C [33]: 90.5%
viability, T/C [34]: 72.8%
viability, T/C [35]: 63.8%
viability, T/C [36]: 44%
